What was measured:
[1] = tested on: antibodies raised to Immunogens I & II; assay: Competitive ELISA (Example 19), sensitivity and cross-reactivity of selected molecules, one result for both antibodies; assay type: binding, sheep; settings: for % CR / IC50: first Table 3, Standard Conc 750.00 ng/ml; for binding / cross-reaction with antibodies raised from Immunogens I and II: result in words
Protocol: (§1) Aqueous solutions of the immunogens prepared in examples 5 and 13 were formulated with Freund's Complete Adjuvant (FCA) to form emulsions consisting of 2mg/ml Immunogen I and 2mg/ml of Immunogen II in 50%(v/v) FCA. Three sheep were immunised with each emulsion (1° immunisations), 0.25ml being intramuscularly injected at four sites in the rump of each animal. Subsequent immunisations (boosts 2-8) contained 1mg/ml Immunogen I and 1mg/ml Immunogen II. All boosts were emulsified in 50%(v/v) Freund's Incomplete Adjuvant (FIA) and administered to the appropriate sheep in the same manner as the 1° immunisations, at monthly intervals. Blood sampling took place 7-14 days after each boost. Each sample was processed to produce antiserum, which was further purified by caprylic acid and ammonium sulphate precipitation to yield an immunoglobulin (Ig) fraction. The Ig fraction was evaluated by competitive ELISA microtiter plate assay, as described in example 19 below.
(§2) Example 19: Development of competitive ELISA for JWH synthetic cannabinoids and metabolites. • (a) The wells of an enhanced binding 96 well polystyrene microtiter plate were coated with the Ig fraction of the antiserum raised to Immunogen I (Hapten A-BTG - example 5) and diluted in 10mM Tris, pH8.5 (125µl/well). The appropriate antibody coating concentration was determined using standard ELISA checkerboard techniques. The plate was incubated for 2 hours at 37°C, washed 4 times over a 10-minute period with Tris buffered saline containing Tween 20 (TBST) and tapped dry. Standard solutions of JWH synthetic cannabinoids, metabolites and selected molecules were prepared in TBST and 50µl of each was added to the appropriate wells. 75µl of conjugate (Hapten A-HRP) diluted in Tris buffer containing EDTA, D-mannitol, sucrose, thimerosal and BSA, was added to each of the wells. The appropriate dilution of conjugate was also determined using standard ELISA checkerboard techniques. The plate was incubated at 25°C for 1 hour. The excess unbound conjugate was removed by washing 6 times over a 10-minute period with TBST and tapped dry. 125µl of tetramethylbenzedine (TMB) substrate solution was added to each well of the plate that was then incubated for 15-20 minutes in the dark at room temperature. The reaction was terminated by addition of 125µl of 0.2M sulphuric acid to each well. The absorbance was then measured at 450nm using a microtiter plate reader. Employing each series of standards, calibration curves were generated and these were used to determine the specificity of the immunoassay for the JWH synthetic cannabinoids, metabolites and selected molecules. The results of this study are presented in Tables 1 to 3, cross-reactivity being calculated according to the following formula: %CR = […] /IC50,CR X 100 [formula] Where %CR is the percentage cross-reactivity, IC50, YWH-018 is the concentration of JWH-018 that causes 50% displacement of signal and IC50, CR is the concentration of JWH synthetic cannabinoid/metabolite/selected molecule that causes 50% displacement of signal.
Table 2: Data generated from a competitive microtiter plate assay for JWH synthetic cannabinoids and metabolites, employing antiserum raised to Immunogen I (Hapten A-BTG) and conjugate (Hapten A-HRP) as detection reagent. • (c) The resulting competitive ELISA for synthetic cannabinoids and metabolites was further employed to analyse urine and serum samples from 20 patients (Table 3). • (d) The resulting competitive ELISA for synthetic cannabinoids and metabolites was also employed to test for the 5-fluoropentyl derivative of JWH-018, (1-(5-fluoropentyl)indol-3yl (1-naphthyl) methanone (Table 4).

Antibody to Immunogen I = assay type: binding, sheep; settings: Cross-reactants at 100 ng/ml; Antibody to Immunogen I
How it was run: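 Sheep anti-Immunogen I IgG coated on plates, then JWH-018 standards (0–40 ng/ml) competed with hapten-HRP conjugate for 1 h at 25°C. TMB read-out at 450 nm, 4-parameter fit. IC50 is the standard concentration giving 50% B/B0; cross-reactivity of related cannabinoids taken from the calibration curves.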

Antibody to Immunogen IV = assay type: binding, sheep; settings: Cross-reactants at 100 ng/ml; Antibody to Immunogen IV
[2] = tested on: Antibody to Immunogen VIII; assay type: binding, sheep; settings: Cross-reactants at 100 ng/ml; Antibody to Immunogen VIII
[3] = tested on: Antibody to Immunogen VII; assay type: binding, sheep; settings: Cross-reactants at 100 ng/ml; Antibody to Immunogen VII
[4] = tested on: antiserum raised to Immunogen II (Hapten B-BTG); assay: Competitive ELISA microtiter plate assay (Example 19), antiserum raised to Immunogen II, Hapten A-HRP conjugate as detection reagent; assay type: binding, sheep; settings: first Table 4, Immunogen II
Protocol: as §1, §2
Table 1: Data generated from a competitive microtiter plate assay for JWH synthetic cannabinoids and metabolites, employing antiserum raised to Immunogen II (Hapten B-BTG) and conjugate (Hapten A-HRP) as detection reagent. (b) In a similar manner to that described in Example 19(a), the wells of a 96 well microtiter plate were coated with the Ig fraction of the antiserum raised to Immunogen II ([…]). Conjugate (Hapten A-HRP) was employed as a detection reagent.

[5] = tested on: antiserum raised to Immunogen I (Hapten A-BTG); assay: Competitive ELISA microtiter plate assay (Example 19), antiserum raised to Immunogen I, Hapten A-HRP conjugate as detection reagent; assay type: binding, sheep; settings: first Table 4, Immunogen I
Protocol: as §1, §2
Table 1: Data generated from a competitive microtiter plate assay for JWH synthetic cannabinoids and metabolites, employing antiserum raised to Immunogen II (Hapten B-BTG) and conjugate (Hapten A-HRP) as detection reagent. (b) In a similar manner to that described in Example 19(a), the wells of a 96 well microtiter plate were coated with the Ig fraction of the antiserum raised to Immunogen II ([…]). Conjugate (Hapten A-HRP) was employed as a detection reagent. […]

CB1 receptor = CB1 receptor (Homo sapiens, UniProt P21554); settings: result in words; detailed in US6900236; cited from earlier work
Chain of CB1 receptor (P21554 whole entry): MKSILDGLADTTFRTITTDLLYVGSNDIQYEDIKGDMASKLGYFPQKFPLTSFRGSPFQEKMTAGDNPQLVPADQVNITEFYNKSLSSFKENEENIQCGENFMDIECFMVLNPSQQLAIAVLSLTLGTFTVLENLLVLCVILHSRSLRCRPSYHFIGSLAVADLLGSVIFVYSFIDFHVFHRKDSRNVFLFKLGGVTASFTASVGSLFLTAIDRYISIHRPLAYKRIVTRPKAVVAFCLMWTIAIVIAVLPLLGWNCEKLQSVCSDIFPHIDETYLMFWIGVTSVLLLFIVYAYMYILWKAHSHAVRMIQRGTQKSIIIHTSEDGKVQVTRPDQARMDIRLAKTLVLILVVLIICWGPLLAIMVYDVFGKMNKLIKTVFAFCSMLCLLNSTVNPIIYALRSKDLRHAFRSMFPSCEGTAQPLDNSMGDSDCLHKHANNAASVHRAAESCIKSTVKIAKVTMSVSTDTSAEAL

In the case of `CCCCCCC(C)(C)c1ccc([C@H]2CCC[C@@H](O)C2)c(O)c1` (racemic) [CP-49,497-C7 ((+-) CP 47,497), CP 47,497], the “% CR” value [1] is reported as under 0.28%, the IC50 [1] is reported as over 750.00 ng/mL and the “%B/B0” value (Antibody to Immunogen I) is reported as 101.20%. For the same compound, the “%B/B0” value (Antibody to Immunogen IV) was 96.84%, the “%B/B0” value [2] was 86.95% and the “%B/B0” value [3] was 94.23%.

For `CCCCCn1cc(C(=O)O)c2ccccc21` [3-Carboxy-N-pentyl-1H -indole, 3-carboxy-1-pentyl-1H-indole], the “% CR” value [1] was under 0.28% and the IC50 [1] was over 750.00 ng/mL.

For `COc1cccc2[nH]cc(CCN(C)C)c12` [4-Methoxypsilocin], the “% CR” value [1] was under 0.28% and the IC50 [1] was over 750.00 ng/mL.

In the case of `O=C(c1cccc2ccccc12)c1cn(CCCCCF)c2ccccc12` [5-Fluoropentyl derivative, 1-(5-Fluoropentyl)indol-3-yl (1-naphthyl) methanone], the IC50 [4] is reported as 0.22 ng/mL, the “% Cross-reactivity” value ([4]; JWH-018 = 100) is reported as 908.00% and the IC50 [5] is reported as 0.02 ng/mL. The “% Cross-reactivity” value ([5]; JWH-018 = 100) was 11500.00%, the “binding / cross-reaction with antibodies raised from Immunogens I and II” value (from here on “binding / cross-reaction”) [1] was “binds” and the “binding to the CB1 receptor” value (CB1 receptor) was “known to bind”.

With `O=C(O)Cc1c[nH]c2ccc(O)cc12` [5-hydroxyindole-3-acetic acid (5-HIAA), 5-hydroxyindole-3-acetic acid] the “% CR” value [1] was under 0.28%, the IC50 [1] was over 750.00 ng/mL and the “%B/B0” value (Antibody to Immunogen IV) was 96.61%. The “%B/B0” value [2] was 108.24% and the “%B/B0” value [3] was 99.46%.

For `OCCc1c[nH]c2ccc(O)cc12` [5-hydroxytryptophol], the “% CR” value [1] was under 0.28%, the IC50 [1] was over 750.00 ng/mL and the “%B/B0” value (Antibody to Immunogen IV) was 94.51%. The “%B/B0” value [2] was 102.93% and the “%B/B0” value [3] was 98.45%.

With `CCCCCc1cc(O)c2c(c1)OC(C)(C)[C@@H]1CCC(CO)=C[C@@H]21` [11-Hydroxy-δ-9-THC] the “% CR” value [1] was under 0.28% and the IC50 [1] was over 750.00 ng/mL.

For `CCCCCc1cc(O)c2c(c1)OC(C)(C)c1ccc(C)cc1-2` [Cannabinol], the “% CR” value [1] was under 0.28%, the IC50 [1] was over 750.00 ng/mL and the “%B/B0” value (Antibody to Immunogen IV) was 94.74%. For the same compound, the “%B/B0” value [2] was 94.03% and the “%B/B0” value [3] was 95.43%.

In the case of `CCCCCc1cc(O)c2c(c1)OC(C)(C)[C@@H]1CCC(C)=C[C@@H]21` [Delta 9 THC], the “% CR” value [1] is reported as under 0.28%, the IC50 [1] is reported as over 750.00 ng/mL and the “%B/B0” value (Antibody to Immunogen IV) is reported as 93.62%. The “%B/B0” value [2] was 96.10% and the “%B/B0” value [3] was 96.76%.

In the case of `O=C(O)c1c[nH]c2ccccc12` [Indole-3-carboxylic Acid], the “% CR” value [1] is reported as under 0.28%, the IC50 [1] is reported as over 750.00 ng/mL and the “binding / cross-reaction” value [1] is reported as “do not cross-react”. The “%B/B0” value (Antibody to Immunogen IV) was 93.42%, the “%B/B0” value [2] was 96.28% and the “%B/B0” value [3] was 96.90%.

With `CCn1cc(C(=O)c2cccc3ccccc23)c2ccccc21` [JWH-071] the “binding / cross-reaction” value [1] was “bind”.

For `NCCc1c[nH]c2ccc(O)cc12` [Serotonin], the “% CR” value [1] was under 0.28% and the IC50 [1] was over 750.00 ng/mL.

Reference: EP2698385A1, “Detection of synthetic cannabinoids” (priority 2012, dated 2014)
